Patent publication US20260216057A1, “PHARMACEUTICAL COMPOSITIONS FOR HERPES VIRUS” (priority 2022, published 2026)
Where two headings read alike, the source gives them in different places.

Experiments:
HSV-1 = HSV-1 antiviral assay, cytopathic effect (CPE) inhibition in vero cells; type: cell-based; conditions: 4 days, read-out: in vitro EC50 against HSV-1
Method: (§1) Cytopathic Effect (CPE) Inhibition Assay
(§2) Cell culture—vero cells were cultured in Dulbecco's Modified Eagle Medium (DMEM) supplemented with 10% fetal bovine serum and 100 units/mL penicillin and streptomycin. The cells were passaged 2-3 times per week to maintain sub-confluent densities.
HSV-1 antiviral assay—vero cells were seeded into 96-well plates at a density of 2.5×10^3 cells per well and allowed to attach overnight. Following attachment, the media was replaced with 50 μL of infection medium (DMEM supplemented with 2% fetal bovine serum and 100 units/mL penicillin and streptomycin). A Tecan D300e digital dispenser was then used to add compounds to the culture using an 8-point 3-fold serial dilution format. The DMSO concentration was normalized to 0.5% for all treatments. Following compound addition, 50 μL of infection medium containing 80 TCID50 HSV-1 was added to the cells and incubated at 37° C. for 4 days. After the incubation, the plates were equilibrated to room temperature, the media was removed, and 60 μL of a 1:1 dilution of Cell titer glow and phosphate buffered saline was added to the cells. Following a 5-minute incubation, cell viability was quantified by measuring luminance using a Tecan Infinite M1000 Pro plate reader.
(§3) Vero cells were cultured in Dulbecco's Modified Eagle Medium (DMEM) supplemented with 10% foetal bovine serum and 100 units/mL penicillin and streptomycin. The cells were passaged 2-3 times per week to maintain sub-confluent densities.
Vero cells were seeded into 96-well plates at a density of 2.5×10^3 cells per well and allowed to attach overnight. Following attachment, the media was replaced with 50 μL of infection medium (DMEM supplemented with 2% foetal bovine serum and 100 units/mL penicillin and streptomycin). A Tecan D300e digital dispenser was then used to add compounds to the culture using an 8-point 3-fold serial dilution format. The DMSO concentration was normalized to 0.5% for all treatments. […] Following a 5-minute incubation, cell viability was quantified by measuring luminance using a Tecan Infinite M1000 Pro plate reader.

HSV-2 G strain = test: HSV-2 antiviral assay, cytopathic effect (CPE) inhibition in vero cells; type: cell-based
Method: as §1, §2
(§4) HSV-2 antiviral assay—vero cells were seeded into 96-well plates at a density of 1.0×10^4 cells per well and allowed to attach overnight. Following attachment, the media was replaced with 50 μL of infection medium (DMEM supplemented with 2% fetal bovine serum and 100 units/mL penicillin and streptomycin). A Tecan D300e digital dispenser was then used to add compounds to the culture using an 8-point 3-fold serial dilution format. The DMSO concentration was normalized to 0.5% for all treatments. Following compound addition, 50 μL of infection medium containing 160 TCID50 HSV-2 G strain was added to the cells and incubated at 37° C. for 5 days. After the incubation, 10 μL/well of WST-8 chromogenic reagent was added and the plates incubated at 37° C. for 3 hours. Following the incubation, cell viability was quantified by measuring the absorbance at 460 nm and 620 nm using a Tecan Infinite M1000 Pro plate reader.
as §3
as §4, with “Vero” for “HSV-2 antiviral assay—vero”, “foetal” for “fetal”

[1] = Example 12: Compound 1 (Form A) aqueous suspension SC PK study in dog; type: in vivo, male non-naïve Beagle dogs; conditions: 10 mg/kg, following an initial drug burst
Method: An aqueous suspension of Compound 1 free form (Form A) in a 0.9% NaCl+0.5% poloxamer 188 vehicle at a concentration of 5.0 mg/mL was prepared as follows: • 1) Vehicle (0.9% w/w NaCl and 0.5% w/w poloxamer 188) was prepared by dissolving NaCl and poloxamer 188 in water. • 2) Appropriate amount of Compound 1 free form was weighed and added to the vehicle. • 3) The mixture was stirred for 15 minutes, then vortexed for 1 minute and then sonicated for 10 minutes. • 4) The final dosing formulation was a homogenous white cloudy suspension.
(§5) Male non-naïve beagles with ~10 kg body weight were used for the dog PK study. The animals had free access to food and water. The prepared suspension was administered via subcutaneous injection to each animal group (n=3) with a dosing volume of 2 mL/kg to achieve a 10 mg/kg dose.
At each time point, approximately 0.5 mL of whole blood was collected into K2EDTA tubes. Blood samples were put on ice and centrifuged at 2000 g for 5 min to obtain plasma samples within 15 minutes. Plasma samples were stored at approximately −70° C. until analyzed by LC-MS.

[2] = Injection site observation in Example 10-12 Compound 1 PK studies; type: in vivo, rat, monkey, dog; conditions: SC Compound 1 depot formulations, Examples 10-12, 3 species
Method: The Compound 1 suspension described above was administered via sub-cutaneous injection to each animal group (n=3) with a dosing volume of 3.33 mL/kg to achieve a 10 mg/kg dose.
Male non-naïve Cyno Monkeys with ~4-6 kg body weight were used for the monkey PK study. The animals had free access to food and water. The prepared suspension was administered via subcutaneous injection to each animal group (n=3) with a dosing volume of 3.33 mL/kg to achieve a 10 mg/kg dose.
as §5

[3] = Example 13A: Compound 1 IV PK study in monkey; type: in vivo, male non-naïve cynomolgus monkeys; conditions: 0.2 mg/kg
Method: A 0.2 mg/mL solution of Compound 1 in 10% DMSO, 10% Solutol HS15 and 80% Saline was prepared as follows: • 1) A stock solution of Compound 1 in DMSO was prepared. • 2) An equal volume of the Compound 1 stock solution and Solutol HS15 were combined and mixed. • 3) The above solution was diluted with normal saline to reach the target concentration. The final formulation was a clear solution. Male non-naïve Cyno Monkeys with were used for the monkey PK study. The animals had free access to food and water. The Compound 1 solution described above was administered via intravenous injection (1 mL/kg) to each animal (n=3) to achieve a 0.2 mg/kg dose. At each time point, approximately 0.5 mL whole blood was collected into K2EDTA tubes. Blood samples were put on to ice and centrifuged at 2000 g for 5 min to obtain plasma sample within 15 minutes. Plasma samples were stored at approximately −70° C. until analyzed by LC-MS.

[4] = Human alphaherpesvirus 1, Vero, 96 h
[5] = Human alphaherpesvirus 2, Vero, 120 h, CPE assay, vero cells, 5 days, read-out: in vitro EC50 against HSV-2

Row | SMILES | EC50 (HSV-1) | EC50 (HSV-1; [4]) | EC50 (HSV-2 G strain; CPE assay, vero cells, 5 days, read-out: in vitro EC50 against HSV-2) | EC50 (HSV-2 G strain; [5]) | EC50 (HSV-2 G strain; Human alphaherpesvirus 2, Vero, Example 9, n=35, read-out: EC50 in the HSV-2 antiviral assay) | prolonged exposure out to [1] | adverse reactions at the injection sites [2] | Clearance [3] | half-life [3]
1 | Cc1nc(N2CCCN(c3ccc(-c4cc(F)ccc4F)cc3)C2=O)sc1S(N)(=O)=O [Compound 1, 2-(3-(2′,5′-difluoro-[1,1′-biphenyl]-4-yl)-2-oxotetrahydropyrimidin-1(2H)-yl)-4-methylthiazole-5-sulfonamide] | 15 nM | ~19 nM | 13 nM | ~11 nM | 11 nM | at least 220 days | no adverse reactions observed | 4 mL/h/kg | 72 h
2 | Cc1nc(N(C)C(=O)Cc2ccc(-c3ccccn3)cc2)sc1S(N)(=O)=O [pritelivir, N-methyl-N-(4-methyl-5-sulfamoyl-1,3-thiazol-2-yl)-2-[4-(pyridin-2-yl)phenyl]acetamide] | – | 47 nM | – | 55 nM | – | – | – | – | –
